Reference: patent US10183915B2, “Axially chiral isomers, and preparation methods therefor and pharmaceutical uses thereof” (MEDSHINE DISCOVERY INC., priority 2015, dated 2019)
Like-named read-outs stand apart in the source and are kept apart here.

Columns and labels:
[1] = Stability of solid compounds in ambient temperature (15° C., nitrogen cabinet, dark; SFC chiral purity); format: physicochemical; conditions: for Enantiomer Excess of the Compound: solid
Description: Test 2: Evaluation of the Stability of Solid Compounds in Ambient Temperature.
20 mg of test compound was placed into 5 mL brown transparent sealed container with stopper and stoned in the nitrogen cabinet (15° C.) in the dark. After the preset storage time, about 2 mg of test compound was accurately weighed, added into ethanol to prepare 1 mg/mL ethanol solution. The purity and chiral purity of the compound was detected by high performance liquid chromatography (HPLC) or LC-MS (LCMS) and supercritical fluid chromatography (SFC).

[2] = Stability of compounds in ethanol solutions (heated; SFC chiral purity); format: physicochemical; conditions: for Enantiomer Excess of Compound: ethanol solution
Text: Test 3: Evaluation of the Stability of Compounds in Ethanol Solutions.
(§1) An appropriate amount of test compound was accurately weighed, added into ethanol to obtain an ethanol solution. The ethanol solution of the compound was stirred in a heated oil bath. At the end of the test, the purity and chiral purity of the compound was detected by high performance liquid chromatography (HPLC) or LC-MS (LCMS) and supercritical fluid chromatography (SFC).

[3] = Stability of compounds in DMSO solutions (heated; SFC chiral purity); format: physicochemical; conditions: for Enantiomer Excess of Compound: DMSO solution
Description: Example 4: Evaluation of the Stability of Compounds in DMSO Solutions
as §1, with “DMSO” for “ethanol”, “a DMSO” for “an ethanol”, “test, a sample amount of the DMSO solution was diluted with ethanol and” for “test,”

[4] = Stability of compounds in human plasma; format: in vitro ADME; conditions: for Recovery (% remaining): human plasma
Description: (§2) Test 5: Evaluation of the Stability of Compounds in Rat Plasma and Human Plasma
(§3) 2. Experimental Procedures and Methods • 2.1 Prior to the experiment, the frozen plasma stored at −40° C. was thawed at room temperature and incubated in a 37° C. water bath for 5-10 min; centrifuged at 4000 rpm for 5 min, to remove impurities and lipids in the plasma. Measured the value of pH, if required, adjusted it to 7.4±0.1. • 2.2 Prepared 400 μM intermediate solution by diluting 4 μL of the working solution (10 mM) with 96 μL DMSO. • 2.3 Preparation of incubation samples: Remove 3 μL of intermediate solution (400 μM) to mix with 597 μL of blank plasma to achieve 2 μM of final concentration. Incubate each time point samples (0 min, 10 min, 30 min, 60 min, 120 min, in duplicate) at 37° C. in water bath. • 2.4 An aliquot of 100 μL samples of the final spiked plasma for each time point were removed to sample collected plates, added 400 μL of stop solution (200 ng/mL Tolbutamide plus 20 ng/mL Buspirone in 50% ACN/MeOH) to precipitate protein. Mixed thoroughly. • 2.5 Centrifuged each plate at 4,000 rpm for 20 min. Transfered an aliquot of supernatant (100 μL) from each well to sample plate and mixed with 200 μL ultra pure water. Shaked the plate at 800 rpm for about 10 min before submitting to LC-MS/MS analysis. 3. Experimental Data Analysis
(§4) The ratio of the peak area to the internal standard peak area was used to assess the decrease of the test compound to be measured. The % remaining of the test compound after incubation in plasma was calculated using following equation: % Remaining=100×(PAR at appointed incubation time/PAR at T0 time)
(§5) wherein PAR is the peak area ratio of analyte versus internal standard (IS)
(§6) The appointed incubation time points are: 0 min, 10 min, 30 min, 60 min, 120 min; T0: Samples prior to incubation.

[5] = Stability of compounds in SD rat plasma; format: in vitro ADME
Description: as §2, §3, §4, §5, §6

[6] = In vivo pharmacokinetic study in male Sprague-Dawley rats (IV and PO); design: species or system Sprague-Dawley rat; conditions: for Bioavailability: PO 10 mpk vs IV 2 mpk; for MRT inf: read-out: MRT0-inf
Description: Test 6: In Vivo Pharmacokinetic Study of the Test Compounds in Rats
To study the pharmacokinetic behavior of the compounds in rats and to evaluate their pharmacokinetic characteristics, their concentrations in plasma were determined by LC/MS/MS.
Appropriate amount of sample was added to a certain amount of pure water, the pH were adjusted to 7-8, to prepare to be 1 mg/mL (filtered and clarified) and 2 mg/mL (with a few particles of suspension) for IV and PO administration. • 2.4 Administration • 18 male SD rats were randomly assigned to 6 treatment groups, 3 rats in each group. Male rats were administrated IV and PO respectively after fasting overnight. The IV dosage was 2 mg/kg, the dose volume was 2 mL/kg, the PO dosage was 10 mg/kg, and the dose volume was 5 mL/kg. 3. Experimental Procedure
For IV group, 250 μL blood samples were collected before administration, and 0.083, 0.25, 0.5, 1, 2, 4, 8, 24 hours after administration, and placed in K2-EDTA anticoagulant tube, centrifuged at 3000 rpm for 15 minutes, plasma was separated, stored at −80° C. For PO Group, blood samples were collected before administration, and 0.25, 0.5, 1, 2, 4, 8, 24 hours after administration, and the other operations were the same as group IV. The content of the test compounds in the plasma of rats after administration of IV and PO were determined by LC/MS/MS method. The linear range of the assay was 6.00-18000 nM, and the lower limit of quantification was 6 nM; the plasma samples were analyzed by pretreatment with precipitated proteins.

[7] = male SD rats, IV 2 mpk, 2 mg/kg
[8] = male SD rats, PO 10 mpk, 10 mg/kg
[9] = male, Sprague-Dawley, rat, plasma, iv, 2 mg/kg, male SD rats, IV 2 mpk
[10] = male, Sprague-Dawley, rat, plasma, po, 10 mg/kg, male SD rats, PO 10 mpk

With O=C(O)CSc1nnc(Br)n1-c1ccc(C2CC2)c2ccccc12 (single isomer, unassigned) [(−)-Lesinurad] the “Enantiomer Excess of the Compound” value ([1]; storing time 0 day) was 96.5%, the “Enantiomer Excess of the Compound” value ([1]; storing time >80 days) was “Unchanged” and the “Stability of the solid powder (SFC purity)” value ([1]; storing over 80 days) was “very stable”. The “Enantiomer Excess of Compound” value ([2]; 37° C., 4 days) was “Unchanged”, the “Enantiomer Excess of Compound” value ([2]; 37° C., 7 days) was “Unchanged” and the “Enantiomer Excess of Compound” value ([2]; heating time 0 day) was 96.5%. The “Stability in ethanol solutions (SFC purity)” value ([2]; heating to 37° C. and up to 70° C.) was “very stable”, the “Enantiomer Excess of Compound” value ([3]; 80° C., 0 h) was 96.5% and the “Enantiomer Excess of Compound” value ([3]; 80° C., 2 × 24 h) was “Unchanged”. The “Enantiomer Excess of Compound” value ([3]; 80° C., 4 × 24 h) was “Unchanged”, the “Enantiomer Excess of Compound” value ([3]; 80° C., 2 h) was “Unchanged” and the “Enantiomer Excess of Compound” value ([3]; 80° C., 4 h) was “Unchanged”. The “Enantiomer Excess of Compound” value ([3]; 80° C., 8 h) was “Unchanged”, the “Enantiomer Excess of Compound” value ([3]; 80° C., 24 h) was “Unchanged” and the “Enantiomer Excess of Compound” value ([3]; 120° C., 0 h) was 96.5%. The “Enantiomer Excess of Compound” value ([3]; 120° C., 2 × 24 h) was “Unchanged”, the “Enantiomer Excess of Compound” value ([3]; 120° C., 4 × 24 h) was “Unchanged” and the “Enantiomer Excess of Compound” value ([3]; 120° C., 2 h) was “Unchanged”. For the same molecule, the “Enantiomer Excess of Compound” value ([3]; 120° C., 4 h) was “Unchanged”, the “Enantiomer Excess of Compound” value ([3]; 120° C., 8 h) was “Unchanged” and the “Enantiomer Excess of Compound” value ([3]; 120° C., 24 h) was “Unchanged”. For the same molecule, the “Enantiomer Excess of Compound” value ([3]; 160° C., 0 h) was 96.5%, the “Enantiomer Excess of Compound” value ([3]; 160° C., 8 h) was “Unchanged” and the “Stability in DMSO solutions (SFC purity)” value ([3]; heating to 80° C., 120° C. and up to 160° C.) was “very stable”. For the same molecule, the “Stability after co-incubation with human plasma” value ([4]; 2 hours) was “very stable”, the “Recovery (% remaining)” value ([4]; 2 μM, 37° C., 30 min) was 100.4% and the “Recovery (% remaining)” value ([4]; 2 μM, 37° C., 60 min) was 99.6%. The recovery at 120 min, 2 μM ([4]; human, plasma, pH 7.4, human plasma, 2 μM, 37° C., 120 min, read-out: Recovery (% remaining)) was 101%, the “Stability after co-incubation with SD-rat plasma” value ([5]; 2 hours) was “very stable” and the recovery at 0 min, 2 μM ([5]; SD, rat, plasma, pH 7.4, SD rat plasma, 2 μM, 37° C., 0 min, read-out: Recovery (% remaining)) was 100%. It also gave a recovery at 10 min, 2 μM ([5]; SD, rat, plasma, pH 7.4, SD rat plasma, 2 μM, 37° C., 10 min, read-out: Recovery (% remaining)) of 102%, a recovery at 30 min, 2 μM ([5]; SD, rat, plasma, pH 7.4, SD rat plasma, 2 μM, 37° C., 30 min, read-out: Recovery (% remaining)) of 99.9% and a recovery at 60 min, 2 μM ([5]; SD, rat, plasma, pH 7.4, SD rat plasma, 2 μM, 37° C., 60 min, read-out: Recovery (% remaining)) of 97.9%. The recovery at 120 min, 2 μM ([5]; SD, rat, plasma, pH 7.4, SD rat plasma, 2 μM, 37° C., 120 min, read-out: Recovery (% remaining)) was 100%, the “Transformation of the atropisomer in vivo” value ([6]; SD rats, IV and PO) was “no transformation was observed” and the AUC0-inf [6, 7] was 14.419 ± 1.54695 µM·h. For the same molecule, the C0 [6, 7] was 9.39 ± 3.21 µM, the Cl [6, 7] was 5.76 ± 0.59 mL/min/kg and the MRT0-inf [6, 7] was 2.16 ± 0.07 h. It also gave a T1/2 [6, 7] of 1.46 ± 0.03 h, a Vdss [6, 7] of 0.75 ± 0.10 L/kg and a Bioavailability ([6]; male SD rats) of 65.11%. It also gave an AUC0-inf [6, 8] of 46.94391 ± 11.4987 µM·h, a Cmax [6, 8] of 11 ± 3.99 µM and an MRT0-inf [6, 8] of 3.92 ± 0.64 h. It also gave a T1/2 [6, 8] of 2.17 ± 0.10 h and a Tmax [6, 8] of 2.33 ± 1.53 h.
In the case of O=C(O)CSc1nnc(Br)n1-c1ccc(C2CC2)c2ccccc12 (racemic) [(±)-Lesinurad, Lesinurad, reference compound], the clearance ([6]; Sprague-Dawley, rat, plasma, 2 mg/kg, male SD rats, IV 2 mpk) is reported as 5.72 ± 1.09 mL/min/kg, the AUC0-inf ([6]; Sprague-Dawley, rat, plasma, 2 mg/kg, male SD rats, IV 2 mpk, read-out: AUC0-inf) is reported as 14.8 ± 3.15 µM·h and the AUC0-inf ([6]; Sprague-Dawley, rat, plasma, 10 mg/kg, male SD rats, PO 10 mpk, read-out: AUC0-inf) is reported as 62.5 ± 12.1 µM·h. For the same molecule, the C0 [6, 9] was 11.6 ± 1.98 µM, the half-life [6, 9] was 1.8 ± 0.65 h and the MRT inf [6, 9] was 2.21 ± 0.63 h. The Vd ([6]; male, Sprague-Dawley, rat, plasma, iv, 2 mg/kg, male SD rats, IV 2 mpk, read-out: Vdss) was 0.76 ± 0.29 L/kg, the Cmax [6, 10] was 14.5 ± 8.47 µM and the half-life [6, 10] was 2.46 ± 0.18 h. For the same molecule, the Bioavailability ([6]; male, Sprague-Dawley, rat, plasma, po, 10 mg/kg, male SD rats, read-out: Bioavailability) was 84.3%, the MRT inf [6, 10] was 4.63 ± 1.16 h and the Tmax ([6]; male, Sprague-Dawley, rat, plasma, po, 10 mg/kg, male SD rats, PO 10 mpk, read-out: Tmax) was 2.33 ± 1.53 h.
